Laboratory results reported in PMC6299220 (mBio, 2018).
Converted amounts (≈) assume the structure as drawn. “And” between values parts separate entries of the source, which are not always exact repeats. Equal values may be shown once. Read-outs that look alike come from different tables or passages of the source.

Tests used:
[1] = Mouse liver microsomal (MLM) stability; conditions: for half-life: mouse, liver microsomes
M. tuberculosis H37Rv = assay: microbe, parasite or virus in culture; type: cell-based, Mycobacterium tuberculosis
[2] = tested on: mycolic acid biosynthesis in M. tuberculosis H37Rv; type: cell-based, Mycobacterium tuberculosis
[3] = mouse, microsomes
KasA = KasA (Mycobacterium tuberculosis, UniProt P9WQD9); assay: Microscale thermophoresis (MST) binding assay; conditions: 49.5 nM labeled KasA
Sequence of KasA (P9WQD9 whole entry): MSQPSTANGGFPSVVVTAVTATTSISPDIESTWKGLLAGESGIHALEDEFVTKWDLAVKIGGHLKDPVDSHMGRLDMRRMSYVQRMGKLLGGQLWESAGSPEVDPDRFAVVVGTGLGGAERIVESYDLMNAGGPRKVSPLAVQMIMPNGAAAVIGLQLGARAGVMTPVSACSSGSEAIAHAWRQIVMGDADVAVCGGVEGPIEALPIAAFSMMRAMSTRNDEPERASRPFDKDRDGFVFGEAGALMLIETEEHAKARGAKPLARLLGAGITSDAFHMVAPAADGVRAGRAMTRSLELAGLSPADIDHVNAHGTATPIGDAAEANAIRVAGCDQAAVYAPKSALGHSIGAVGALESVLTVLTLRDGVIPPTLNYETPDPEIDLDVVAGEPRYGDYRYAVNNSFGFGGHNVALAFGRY

physchem = conditions: pH 7.4, aqueous buffer, kinetic from dmso stock
in vitro [4] = conditions: African green monkey
in vitro [5] = conditions: mouse, microsomes
hERG = hERG (Homo sapiens, UniProt Q12809); assay: hERG inhibition
Sequence of hERG (Q12809 whole entry): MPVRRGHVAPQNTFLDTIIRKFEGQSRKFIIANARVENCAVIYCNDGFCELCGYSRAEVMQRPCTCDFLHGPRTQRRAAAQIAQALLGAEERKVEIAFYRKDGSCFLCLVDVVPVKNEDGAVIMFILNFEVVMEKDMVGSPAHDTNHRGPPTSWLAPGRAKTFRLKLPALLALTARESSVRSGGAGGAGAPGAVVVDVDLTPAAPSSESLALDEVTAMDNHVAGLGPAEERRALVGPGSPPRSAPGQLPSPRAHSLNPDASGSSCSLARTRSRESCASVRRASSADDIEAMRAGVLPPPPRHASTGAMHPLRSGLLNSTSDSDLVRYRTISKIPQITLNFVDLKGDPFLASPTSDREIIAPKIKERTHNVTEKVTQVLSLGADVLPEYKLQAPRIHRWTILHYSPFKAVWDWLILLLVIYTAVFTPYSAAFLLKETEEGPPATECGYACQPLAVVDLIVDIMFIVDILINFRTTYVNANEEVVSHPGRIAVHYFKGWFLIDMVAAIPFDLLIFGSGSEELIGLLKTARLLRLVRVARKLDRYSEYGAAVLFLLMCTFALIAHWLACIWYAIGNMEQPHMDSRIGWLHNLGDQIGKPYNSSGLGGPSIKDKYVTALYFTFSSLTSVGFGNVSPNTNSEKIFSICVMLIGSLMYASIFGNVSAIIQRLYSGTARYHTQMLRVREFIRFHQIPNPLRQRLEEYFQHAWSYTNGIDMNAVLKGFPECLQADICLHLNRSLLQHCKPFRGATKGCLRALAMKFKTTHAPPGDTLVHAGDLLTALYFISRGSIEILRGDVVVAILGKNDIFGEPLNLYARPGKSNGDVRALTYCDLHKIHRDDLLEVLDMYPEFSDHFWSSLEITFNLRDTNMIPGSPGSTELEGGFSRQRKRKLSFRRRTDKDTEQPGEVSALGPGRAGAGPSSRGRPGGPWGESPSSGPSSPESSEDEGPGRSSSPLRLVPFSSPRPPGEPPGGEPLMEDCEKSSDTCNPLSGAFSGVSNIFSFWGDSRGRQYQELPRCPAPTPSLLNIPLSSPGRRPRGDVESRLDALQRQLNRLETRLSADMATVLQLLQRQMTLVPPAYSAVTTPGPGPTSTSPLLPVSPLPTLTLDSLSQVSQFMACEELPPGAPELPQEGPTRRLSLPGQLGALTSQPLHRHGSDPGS

[6] = not given; remark: listed apart in the source
M. marinum = assay: MIC, MABA; type: cell-based; conditions: Mycobacterium marinum; M. marinum ATCC wild type
[7] = tested on: M. tuberculosis 100-day-old bacilli (persisters); type: cell-based, Mycobacterium tuberculosis
[8] = Chemical stability at pH 2, 7, 9; type: physicochemical; conditions: for half-life: buffer, read-out: Chemical stability t1/2
Source text: (§1) Supplement mbo006184230st8.docx, table 1: Table S3. Profile of DG167 | column: value

[9] = tested on: iniBAC promoter (PiniBAC); type: cell-based, M. bovis BCG
CYP2C19 = CYP2C19 (Homo sapiens, UniProt P33261); assay: Cytochrome P450 inhibition; type: in vitro ADME; conditions: read-out: Cytochrome P450 IC50, 2C19
Sequence of CYP2C19 (P33261 whole entry, species assumed): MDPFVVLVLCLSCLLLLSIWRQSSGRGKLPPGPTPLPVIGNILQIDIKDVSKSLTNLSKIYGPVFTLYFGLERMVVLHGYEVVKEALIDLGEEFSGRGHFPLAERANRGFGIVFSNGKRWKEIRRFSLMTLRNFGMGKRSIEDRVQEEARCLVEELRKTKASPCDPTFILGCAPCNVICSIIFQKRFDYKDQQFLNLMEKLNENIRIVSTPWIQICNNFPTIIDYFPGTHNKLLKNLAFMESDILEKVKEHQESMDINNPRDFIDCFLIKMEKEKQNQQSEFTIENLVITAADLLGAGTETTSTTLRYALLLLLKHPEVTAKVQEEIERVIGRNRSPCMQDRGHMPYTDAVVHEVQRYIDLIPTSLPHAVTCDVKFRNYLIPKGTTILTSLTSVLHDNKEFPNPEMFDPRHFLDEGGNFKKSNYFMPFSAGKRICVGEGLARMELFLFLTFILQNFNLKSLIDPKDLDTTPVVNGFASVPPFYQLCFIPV

M. fortuitum = assay: MIC, MABA; type: cell-based; conditions: Mycolicibacterium fortuitum; M. fortuitum ATCC wild type
in vitro [10] = type: cell-based; conditions: mouse
Source text: as §1

CYP1A2 = CYP1A2 (Homo sapiens, UniProt P05177); assay: biochemical; type: in vitro ADME
Sequence of CYP1A2 (P05177 whole entry): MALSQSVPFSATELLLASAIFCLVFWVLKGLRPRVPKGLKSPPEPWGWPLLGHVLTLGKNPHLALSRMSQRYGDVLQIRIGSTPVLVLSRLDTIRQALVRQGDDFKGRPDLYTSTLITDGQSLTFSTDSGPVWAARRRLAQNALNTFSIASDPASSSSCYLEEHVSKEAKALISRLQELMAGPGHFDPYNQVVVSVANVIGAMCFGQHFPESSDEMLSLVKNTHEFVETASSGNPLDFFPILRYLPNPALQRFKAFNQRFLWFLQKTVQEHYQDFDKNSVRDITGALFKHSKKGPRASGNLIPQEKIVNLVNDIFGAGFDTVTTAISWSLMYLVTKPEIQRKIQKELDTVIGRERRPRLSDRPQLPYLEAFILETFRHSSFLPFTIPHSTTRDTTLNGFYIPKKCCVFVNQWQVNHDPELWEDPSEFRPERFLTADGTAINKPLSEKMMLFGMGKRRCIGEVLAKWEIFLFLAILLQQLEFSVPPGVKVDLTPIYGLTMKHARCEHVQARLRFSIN
Source text: as §1

CYP2D6 = CYP2D6 (Homo sapiens, UniProt P10635); assay: biochemical; type: in vitro ADME
Sequence of CYP2D6 (P10635 whole entry): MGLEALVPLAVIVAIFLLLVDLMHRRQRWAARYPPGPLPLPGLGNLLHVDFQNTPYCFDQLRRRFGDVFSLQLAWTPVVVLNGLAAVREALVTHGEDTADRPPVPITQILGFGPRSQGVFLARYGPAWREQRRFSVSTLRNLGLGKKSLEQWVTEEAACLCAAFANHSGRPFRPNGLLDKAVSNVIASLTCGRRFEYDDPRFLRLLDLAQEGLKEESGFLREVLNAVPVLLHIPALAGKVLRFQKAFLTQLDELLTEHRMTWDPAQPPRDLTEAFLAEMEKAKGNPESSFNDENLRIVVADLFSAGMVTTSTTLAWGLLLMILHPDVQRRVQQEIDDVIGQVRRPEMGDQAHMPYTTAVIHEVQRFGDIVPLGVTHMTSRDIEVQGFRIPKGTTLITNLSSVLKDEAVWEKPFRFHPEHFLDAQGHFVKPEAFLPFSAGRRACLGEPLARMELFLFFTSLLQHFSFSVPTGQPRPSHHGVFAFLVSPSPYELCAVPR
Source text: as §1

CYP3A4 = CYP3A4 (Homo sapiens, UniProt P08684); assay: biochemical; type: in vitro ADME
Sequence of CYP3A4 (P08684 whole entry): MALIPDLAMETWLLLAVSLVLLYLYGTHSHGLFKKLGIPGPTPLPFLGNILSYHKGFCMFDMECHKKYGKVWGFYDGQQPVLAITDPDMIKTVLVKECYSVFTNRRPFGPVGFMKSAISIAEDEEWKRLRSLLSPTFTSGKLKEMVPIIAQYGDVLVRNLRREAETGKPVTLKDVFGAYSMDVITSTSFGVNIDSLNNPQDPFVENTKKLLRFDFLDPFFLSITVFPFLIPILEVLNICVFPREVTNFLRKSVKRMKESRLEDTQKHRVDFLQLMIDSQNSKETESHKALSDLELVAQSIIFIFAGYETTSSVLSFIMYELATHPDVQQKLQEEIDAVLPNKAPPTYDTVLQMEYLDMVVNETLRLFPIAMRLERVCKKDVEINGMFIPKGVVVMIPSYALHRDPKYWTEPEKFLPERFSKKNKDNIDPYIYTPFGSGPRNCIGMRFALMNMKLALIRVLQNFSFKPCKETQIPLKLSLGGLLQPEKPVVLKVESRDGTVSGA
Source text: as §1

CYP2C9 = CYP2C9 (Homo sapiens, UniProt P11712); assay: biochemical; type: in vitro ADME
Sequence of CYP2C9 (P11712 whole entry): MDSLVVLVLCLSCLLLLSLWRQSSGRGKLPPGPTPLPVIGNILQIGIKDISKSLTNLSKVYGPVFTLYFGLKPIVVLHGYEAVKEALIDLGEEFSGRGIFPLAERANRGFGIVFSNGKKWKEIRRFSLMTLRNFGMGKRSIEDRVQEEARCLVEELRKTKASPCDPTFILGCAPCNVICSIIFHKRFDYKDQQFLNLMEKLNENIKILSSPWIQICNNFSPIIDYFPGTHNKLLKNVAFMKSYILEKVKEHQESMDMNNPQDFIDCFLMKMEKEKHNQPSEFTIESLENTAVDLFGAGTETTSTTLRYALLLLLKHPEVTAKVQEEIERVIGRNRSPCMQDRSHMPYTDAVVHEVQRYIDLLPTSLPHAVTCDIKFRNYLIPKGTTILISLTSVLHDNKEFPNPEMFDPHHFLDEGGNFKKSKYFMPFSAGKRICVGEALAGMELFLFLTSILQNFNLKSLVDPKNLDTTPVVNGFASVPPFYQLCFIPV
Source text: as §1

M. abscessus = assay: MIC, MABA; type: cell-based; conditions: Mycobacteroides abscessus; M. abscessus ATCC wild type
[11] = type: in vitro ADME
Source text: as §1

in vitro [12] = conditions: human
M. smegmatis = assay: MIC, MABA; type: cell-based; conditions: Mycolicibacterium smegmatis; M. smegmatis wild-type
[13] = tested on: M. tuberculosis H37Rv gene expression; type: cell-based, Mycobacterium tuberculosis
M. avium = assay: MIC, MABA; type: cell-based; conditions: Mycobacterium avium; M. avium ATCC wild type
in vitro [14] = type: in vitro ADME; conditions: for fraction unbound: plasma
Source text: as §1

in vivo = conditions: female, BALB/c
Protocol: All animal experiments were approved by the Institutional Animal Care and Use Committee of the New Jersey Medical School, Rutgers University, and were conducted in compliance with their guidelines. […] Sequential bleeds were collected at 0.25, 0.5, 1, 3, 5, and 8 h postdose via the tail snip method. Blood (50 µl) was collected in capillary microvette EDTA blood tubes and kept on ice prior to centrifugation at 1,500 × g for 5 min. The supernatant (plasma) was transferred into a 96-well plate and stored at −80°C.
Chromatography was performed with an Agilent Zorbax SB-C8 column (2.1 by 30 mm; particle size, 3.5 µm) using a reverse-phase gradient elution. A mixture of 0.1% formic acid–Milli-Q deionized water was used for the aqueous mobile phase and 0.1% formic acid–acetonitrile (ACN) for the organic mobile phase. […] Extracts were subjected to vortex mixing for 5 min and centrifuged at 4,000 rpm for 5 min. The supernatants were analyzed by LC-MS. Verapamil IS was sourced from Sigma-Aldrich.

M. tuberculosis 210 = assay: microbe, parasite or virus in culture; type: cell-based; conditions: Mycobacterium tuberculosis
M. tuberculosis TDR692 = assay: microbe, parasite or virus in culture; type: cell-based; conditions: Mycobacterium tuberculosis
M. bovis BCG = assay: microbe, parasite or virus in culture; type: cell-based; conditions: Mycobacterium tuberculosis variant bovis BCG
M. tuberculosis = conditions: cited from earlier work
[15] = MLM stability t1/2 without NADPH, without NADPH
[16] = Mycobacterium tuberculosis, H37RV
[17] = MLM stability t1/2 without NADPH

In the case of “1-Methyl-N-pentyl-1H-indazol-6-amine [5f]”, the MLM stability clint ([1]; Table 3) is reported as 56.7 μl/mi/mg protein, the “MLM stability t1/2” value ([1]; with NADPH) is reported as 12.2 min and the “MLM stability t1/2 without NADPH” value ([1]; without NADPH) is reported as > 3,060 min. The “Kinetic solubility in pH 7.4 PBS” value was over 500 µM and the MIC (M. tuberculosis H37Rv) was over 100 µM.
With `CCCCS(=O)(=O)Nc1ccc2cn[nH]c2c1` [5a-2, N-(1H-Indazol-6-yl)butane-1-sulfonamide] the half-life ([1]; MLM stability t1/2, with NADPH) was 12.2 min, the half-life [1, 15] was over 3060 min and the “inhibition of mycolic acid biosynthesis” value [2] was “did not show any inhibition”. For the same molecule, the MLM stability clint [3] was 68.7 μl/mi/mg protein, the EC50 (KasA) was 1740 nM and the solubility kinetic (physchem) was over 600 µM. For the same molecule, the MIC (M. tuberculosis H37Rv) was over 100 µM and the MIC (M. tuberculosis H37Rv; [16]) was over 100 µM.
`CCCCS(=O)(=O)Nc1ccc2cnn(CC)c2c1` [5a-3, N-(1-Ethyl-1H-indazol-6-yl)butane-1-sulfonamide] showed a CC50 (in vitro [4]) of 44.4 µM, a half-life (in vitro [5]; MLM stability t1/2) of 1.29 min and a half-life (in vitro [5]; [17]) of over 3060 min. For the same molecule, the MLM stability clint [3] was 536 μl/mi/mg protein, the solubility kinetic (physchem) was 472 µM (≈ 133 µg/mL) and the MIC (M. tuberculosis H37Rv; [16]) was 6.2 µM (≈ 1.74 µg/mL).
With `[2H]C([2H])([2H])n1ncc2ccc(NS(=O)(=O)CCCC)cc21` [5a-30, N-(1-(Methyl-d3)-1H-indazol-6-yl)butane-1-sulfonamide] the CC50 (in vitro [4]) was 180 µM, the half-life (in vitro [5]) was 16.8 min and the half-life (in vitro [5]; [17]) was over 3060 min. For the same molecule, the MLM stability clint [3] was 41.3 μl/mi/mg protein and the solubility kinetic (physchem) was over 500 µM.
Molecule `CCCCNC(=S)Nc1ccc2cnn(C)c2c1` [5b-1, 1-Butyl-3-(1-methyl-1H-indazol-6-yl)thiourea] has a CC50 (in vitro [4]) of 25 µM, a half-life (in vitro [5]; MLM stability t1/2) of 1.17 min and a half-life (in vitro [5]; [17]) of over 3060 min. For the same molecule, the MLM stability clint [3] was 595 μl/mi/mg protein, the solubility kinetic (physchem) was 131 µM (≈ 34.4 µg/mL) and the MIC (M. tuberculosis H37Rv; [16]) was 3.1 µM (≈ 0.813 µg/mL).
In the case of `CCC(=O)Nc1ccc2cnn(C)c2c1` [5c-1, N-(1-methyl-1H-indazol-6-yl)propionamide], the half-life (in vitro [5]; MLM stability t1/2) is reported as 1.29 min, the MLM stability clint [3] is reported as 536 μl/mi/mg protein and the solubility kinetic (physchem) is reported as 472 µM (≈ 95.9 µg/mL). The MIC (M. tuberculosis H37Rv; [16]) was over 100 µM.
For `CCCCC(=O)Nc1ccc2cnn(C)c2c1` [5c-2, N-(1-Methyl-1H-indazol-6-yl)pentanamide], the half-life (in vitro [5]; MLM stability t1/2) was 0.668 min, the half-life (in vitro [5]; [17]) was 13.1 min and the MLM stability clint [3] was 1,040 μl/mi/mg protein. The solubility kinetic (physchem) was over 500 µM and the MIC (M. tuberculosis H37Rv; [16]) was over 100 µM.
`CCOC(=O)Nc1ccc2cnn(C)c2c1` [5d-1, Ethyl (1-methyl-1H-indazol-6-yl)carbamate] showed a CC50 (in vitro [4]) of 110 µM, a half-life (in vitro [5]; MLM stability t1/2) of 1.16 min and an MLM stability clint [3] of 597 μl/mi/mg protein. For the same molecule, the solubility kinetic (physchem) was over 500 µM and the MIC (M. tuberculosis H37Rv; [16]) was over 100 µM.
`CCCCS(=O)(=O)Nc1ccc2[nH]nc(C)c2c1` [5g, N-(3-Methyl-1H-indazol-5-yl)butane-1-sulfonamide] showed a CC50 (in vitro [4]) of 94 µM, a half-life ([1]; MLM stability t1/2, with NADPH) of 11.5 min and a half-life [1, 15] of 141 min. For the same molecule, the MLM stability clint [3] was 60.3 μl/mi/mg protein, the Kd (KasA) was 46.5 ± 18.7 nM and the “improvement in MIC/whole-cell activity over DG167” value (M. tuberculosis H37Rv) was 2 fold. It also gave an MIC (M. tuberculosis H37Rv; [16]) of 0.2 µM (≈ 0.0535 µg/mL).
With `CCCCS(=O)(=O)Nc1ccc2cnn(C)c2c1` [DG167, N-(1-Methyl-1H-indazol-6-yl)butane-1-sulfonamide] the IC50 (hERG) was over 20 µM, the “tolerability, dose escalation” value ([6]; mice, 50 and 100 mg/kg, monitored for 8 h) was “well tolerated” and the “dose tolerability for 5 days” value ([6]; mice, 5 days, DG167 50 and 100 mg/kg, combination DG167 100 mg/kg with INH 25 mg/kg) was “did not show any behavioral changes or weight loss”. The “tolerability, dose escalation” value ([6]; mouse, in vivo) was “heavy breathing, hunched posture, and decreased activity”, the MIC (M. marinum) was over 50 µM and the CC50 (in vitro [4]) was 23 µM. For the same molecule, the “killing of persister cultures” value [7] was “minimal killing”, the half-life ([8]; pH 2) was 7.99 days and the half-life ([8]; pH 9) was 2.41 days. The “Chemical stability t1/2” value ([8]; pH 7) was “Stable”, the “induction of iniBAC promoter” value [9] was “approximately 12 fold” and the IC50 (CYP2C19) was 12 µM and 12.4 µM. For the same molecule, the MIC (M. fortuitum) was over 50 µM, the “inhibition of mycolic acid biosynthesis” value [2] was “dose-dependent inhibition” and the CC50 (in vitro [10]) was 94 µM. The IC50 (CYP1A2) was over 50 µM, the IC50 (CYP2D6) was over 50 µM and the IC50 (CYP3A4) was over 50 µM. For the same molecule, the IC50 (CYP2C9) was over 50 µM, the MIC (M. abscessus) was over 50 µM and the “Human plasma stability at 5 h” value [11] was 109%. The “Mouse plasma stability @ 5 h” value [11] was 99.1%, the Papp (in vitro [12]; Caco-2, Caco-2 Permeability PA-B) was 71.8 ×10⁻⁶ cm/s and the Papp (in vitro [12]; Caco-2, Caco-2 Permeability PB-A) was 45.6 ×10⁻⁶ cm/s. For the same molecule, the MIC (M. smegmatis) was over 50 µM, the half-life (in vitro [5]) was 10.1 min and the microsomal CLint (in vitro [5]) was 68.9 µL/min/mg. The half-life (in vitro [5]; [15]) was over 300 min, the “expression of the kasA, kasB, and acpM genes and the iniBAC operon” value [13] was “strongly induced expression” and the MIC (M. avium) was over 50 µM. The recovery (in vitro [14]; human) was 92%, the fraction unbound (in vitro [14]; human) was 0.081 and the recovery (in vitro [14]; mouse) was 90.7%. For the same molecule, the fraction unbound (in vitro [14]; mouse) was 0.21, the MLM stability clint [3] was 68.9 μl/mi/mg protein and the MLM-generated metabolites [3] was “A demethylated species, corresponding to loss of the 1-methyl group (Fig. S5A), predominated among the metabolites”. It also gave an EC50 (KasA) of 131 ± 18.2 nM, a solubility kinetic (physchem) of 324 µM (≈ 86.6 µg/mL) and an AUC(0-t) (in vivo; mouse, in vivo, iv, 5 mg/kg) of 1750 ng·h/mL. The half-life (in vivo; mouse, in vivo, iv, 5 mg/kg) was 19.8 min, the AUC(0-t) (in vivo; mouse, in vivo, po, 25 mg/kg) was 8080 ng·h/mL and the bioavailability (in vivo; plasma, po, 25 mg/kg) was 92.3%.
With `NNC(=O)c1ccncc1` [INH, isoniazid] the MIC (M. marinum) was over 12 µM, the MIC (M. tuberculosis 210) was 0.4 µM (≈ 0.0549 µg/mL) and the “killing of persister cultures” value [7] was “minimal killing”. For the same molecule, the MIC (M. fortuitum) was over 12 µM, the MIC (M. tuberculosis TDR692) was 0.2 µM (≈ 0.0274 µg/mL) and the MIC (M. abscessus) was over 12 µM. The MIC (M. bovis BCG) was 0.4 µM (≈ 0.0549 µg/mL), the MIC (M. smegmatis) was over 12 µM and the “Fold change, Rv0885” value [13] was 2.044 fold. The “Fold change, Rv2706c” value [13] was 2.3 fold, the “Fold change, Rv3269” value [13] was -2.076 fold and the “Fold change, Rv3352c” value [13] was 2.131 fold. The “Fold change, ctpD” value [13] was 2.334 fold, the “Fold change, cysA3” value [13] was -2.027 fold and the “Fold change, fadD5” value [13] was -2.2153 fold. The “Fold change, fadD11” value [13] was -2.252 fold, the “Fold change, lprQ” value [13] was 2.051 fold and the “Fold change, sapM” value [13] was 2.01 fold. The “expression of the kasA, kasB, and acpM genes and the iniBAC operon” value [13] was “strongly induced expression” and the MIC (M. avium) was over 12 µM.
For `CC12C[C@@]34C=CC(=O)[C@@](C)(CCC(=O)Nc5c(O)ccc(C(=O)O)c5O)C3[C@H](CC1C4)O2` (stereo partly shown) [platensimycin], the “whole-cell activity in M. tuberculosis” value (M. tuberculosis) is listed as 27 µM.
For `C=C/C(C)=C/[C@@]1(C)SC(=O)C(C)=C1O` [thiolactomycin], the “whole-cell activity in M. tuberculosis” value (M. tuberculosis) is given as 142 µM.
